Assay [1] addresses T1, Mitogen-activated protein kinase kinase kinase 5 (Homo sapiens, UniProt Q99683).
T1 sequence (Q99683 whole entry): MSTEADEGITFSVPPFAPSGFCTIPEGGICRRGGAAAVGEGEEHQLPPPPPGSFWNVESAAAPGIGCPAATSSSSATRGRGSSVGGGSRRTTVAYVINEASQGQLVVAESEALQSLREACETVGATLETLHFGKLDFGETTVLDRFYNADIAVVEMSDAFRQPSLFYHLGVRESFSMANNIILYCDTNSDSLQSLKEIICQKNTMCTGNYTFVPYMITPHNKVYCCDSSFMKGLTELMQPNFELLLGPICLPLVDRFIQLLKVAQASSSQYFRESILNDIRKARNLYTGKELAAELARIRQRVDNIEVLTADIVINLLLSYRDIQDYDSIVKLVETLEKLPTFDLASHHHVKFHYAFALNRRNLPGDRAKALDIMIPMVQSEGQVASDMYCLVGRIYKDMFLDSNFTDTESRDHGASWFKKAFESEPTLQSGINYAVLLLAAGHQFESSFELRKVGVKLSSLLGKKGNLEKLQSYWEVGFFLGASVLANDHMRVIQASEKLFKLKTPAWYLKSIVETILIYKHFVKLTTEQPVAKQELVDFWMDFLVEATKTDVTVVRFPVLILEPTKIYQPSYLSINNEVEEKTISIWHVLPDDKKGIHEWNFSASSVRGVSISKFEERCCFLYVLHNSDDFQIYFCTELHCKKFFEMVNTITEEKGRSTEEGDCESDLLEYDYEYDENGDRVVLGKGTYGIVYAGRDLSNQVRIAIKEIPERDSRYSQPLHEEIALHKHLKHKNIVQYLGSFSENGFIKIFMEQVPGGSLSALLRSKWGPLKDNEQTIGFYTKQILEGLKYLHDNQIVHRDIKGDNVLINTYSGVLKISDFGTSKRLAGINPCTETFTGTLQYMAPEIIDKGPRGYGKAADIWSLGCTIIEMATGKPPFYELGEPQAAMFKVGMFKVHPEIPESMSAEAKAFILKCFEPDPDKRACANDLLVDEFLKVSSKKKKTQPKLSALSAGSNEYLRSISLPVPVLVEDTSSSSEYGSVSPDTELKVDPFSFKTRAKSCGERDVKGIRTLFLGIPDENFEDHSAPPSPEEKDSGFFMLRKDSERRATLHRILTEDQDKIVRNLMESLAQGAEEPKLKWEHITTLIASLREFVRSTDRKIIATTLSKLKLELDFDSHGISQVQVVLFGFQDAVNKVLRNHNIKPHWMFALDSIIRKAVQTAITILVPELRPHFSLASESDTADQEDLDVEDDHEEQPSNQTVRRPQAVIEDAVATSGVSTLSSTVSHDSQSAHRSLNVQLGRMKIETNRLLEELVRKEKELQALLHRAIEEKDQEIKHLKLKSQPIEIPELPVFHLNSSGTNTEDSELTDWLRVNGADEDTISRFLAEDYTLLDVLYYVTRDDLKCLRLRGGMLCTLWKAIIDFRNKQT
The assay can be described thus: Inhibition of ASK1 by luciferase assay.

For assay [2], the target named is T1, Mitogen-activated protein kinase kinase kinase 5. Nature of the assay: Inhibition of ASK1 by fluorescence correlation spectroscopy.
For assay [3] the target is unchanged. The assay can be described thus: Binding affinity to ASK1.

A value given as a limit tells only on which side of the number the result lay.

On to `NC1=NC(=O)/C(=C2\CCNC(=O)c3[nH]c(Br)cc32)N1` [HYMENIALDISINE], for which the IC50 in assay [1] is 0.15 µM; in assay [2], 7 µM.
Consider `CO[C@@H]1[C@H](N(C)C(=O)COCCOCCNC(=O)c2ccc(-c3c4ccc(=[N+](C)C)cc-4oc4cc(N(C)C)ccc34)c(C(=O)O)c2)C[C@H]2O[C@]1(C)n1c3ccccc3c3c4c(c5c6ccccc6n2c5c31)C(=O)NC4`, for which binding in assay [3] was put at a Kd of 8 µM.
As to `Cn1cc(/C=C2\C(=O)Nc3ccccc32)c2ccccc21`, the figures for the IC50 in assay [1] and in assay [2] were 82.7 µM and > 100 µM, respectively.

In general, IC50 refers to the concentration needed to halve the response being measured. Low values mean inhibition by little substance, high ones a need for much substance. By Kd is commonly meant the concentration at which binding is half-saturated.

Values taken from ChEMBL document CHEMBL1157449, “Development of a novel fluorescent probe for fluorescence correlation spectroscopic detection of kinase inhibitors” (Bioorg Med Chem Lett, 2008).
